The first assay concerns the target T1, Tyrosinase (Agaricus bisporus, UniProt O42713).
T1 sequence (O42713 whole entry): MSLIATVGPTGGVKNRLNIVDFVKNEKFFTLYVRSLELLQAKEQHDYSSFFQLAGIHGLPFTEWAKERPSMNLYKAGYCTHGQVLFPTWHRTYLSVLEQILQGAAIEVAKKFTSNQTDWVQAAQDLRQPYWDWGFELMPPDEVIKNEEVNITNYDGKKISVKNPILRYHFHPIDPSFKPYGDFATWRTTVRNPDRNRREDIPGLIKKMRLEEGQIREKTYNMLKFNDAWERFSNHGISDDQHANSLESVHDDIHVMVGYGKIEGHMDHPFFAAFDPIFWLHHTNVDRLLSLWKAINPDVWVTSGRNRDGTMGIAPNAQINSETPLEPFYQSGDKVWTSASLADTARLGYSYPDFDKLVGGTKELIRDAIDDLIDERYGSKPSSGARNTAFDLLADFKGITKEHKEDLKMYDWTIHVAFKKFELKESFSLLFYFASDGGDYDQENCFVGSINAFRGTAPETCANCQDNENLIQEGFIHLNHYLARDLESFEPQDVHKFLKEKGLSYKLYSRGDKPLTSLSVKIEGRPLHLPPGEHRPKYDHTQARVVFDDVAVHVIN
As to the kind of experiment: Noncompetitive inhibition of diphenolase activity of mushroom tyrosinase preincubated for 10 mins followed by addition of L-DOPA measured for 5 mins by Lineweaver-Burk plot analysis.
As usually defined, the Ki is a dissociation constant, usually derived from enzyme kinetics or from competition with a known ligand. On to `O=C(O)CSc1nnc(NC(=S)Nc2cccc(C(F)(F)F)c2)s1`, for which the affinity corresponds to a Ki of 8.13 µM. This lies in the single-digit micromolar range.

The target in a further assay is T1, Tyrosinase. The assay can be described thus: Inhibition of diphenolase activity of mushroom tyrosinase preincubated for 10 mins followed by addition of L-DOPA measured for 5 mins by spectrophotometry.
Usually IC50 stands for the midpoint of a concentration-inhibition curve. Read a high IC50 as weaker potency in that assay. For `O=C(O)CSc1nnc(NC(=S)Nc2ccc(Cl)cc2)s1`, the IC50 worked out at 26.3 µM. Still for that read-out and setting: under `O=C(O)CSc1nnc(NC(=S)Nc2ccccc2)s1` stands 27.7 µM; under `O=C(O)CSc1nnc(NC(=S)Nc2ccc(F)c(F)c2)s1`, 20.5 µM. The same measure, in the same setting: under `O=C(O)CSc1nnc(NC(=S)Nc2ccc(F)cc2)s1` stands 20.9 µM; under `O=C(O)CSc1nnc(NC(=S)Nc2ccc(F)c(Cl)c2)s1`, 33.9 µM.

Turning to `O=C(O)CSc1nnc(NC(=S)Nc2ccc(F)cc2F)s1`, the IC50 was found to be 20.1 µM. Against the preceding compound, the IC50 is about 1.7-fold lower. Still for that read-out and setting: the same measure for `COc1ccccc1NC(=S)Nc1nnc(SCC(=O)O)s1`: 27.1 µM. On the same count and under the same terms, under `O=C(O)CSc1nnc(NC(=S)Nc2cccc(F)c2)s1` stands 31.3 µM; under `O=C(O)CSc1nnc(NC(=S)Nc2cccc(C(F)(F)F)c2)s1`, 6.13 µM; under `O=C(O)CSc1nnc(NC(=S)Nc2cccc(Cl)c2)s1`, 59.7 µM.

For `Cc1ccc(NC(=S)Nc2nnc(SCC(=O)O)s2)cc1`, half-maximal inhibition (IC50) required 54.4 µM.

Source of the values: ChEMBL document CHEMBL3779795, “Design and synthesis of thiourea derivatives with sulfur-containing heterocyclic scaffolds as potential tyrosinase inhibitors” (Bioorg Med Chem, 2016).
